In experiment [1] the target is T1, SHP2 enzyme (catalytic domain, amino acid sequence 224-528) (Homo sapiens, UniProt Q06124).
T1 construct: purchased GenScript
T1 sequence (Q06124 224-528): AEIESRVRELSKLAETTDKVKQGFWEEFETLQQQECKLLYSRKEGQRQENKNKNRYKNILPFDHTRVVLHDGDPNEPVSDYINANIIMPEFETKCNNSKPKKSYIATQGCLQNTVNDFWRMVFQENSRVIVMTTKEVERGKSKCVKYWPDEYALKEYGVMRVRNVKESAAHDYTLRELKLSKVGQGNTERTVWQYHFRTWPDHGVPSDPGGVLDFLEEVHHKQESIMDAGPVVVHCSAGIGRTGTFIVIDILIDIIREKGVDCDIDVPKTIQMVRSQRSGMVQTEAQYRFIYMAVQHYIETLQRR
Put plainly: SHP2 enzyme inhibition assay (DiFMUP substrate, fluorescence). In kind it is biochemical. To be noted: for IC50: SHP2 catalytic domain, DiFMUP substrate, 30 min pre-incubation, read-out: S HP2 I C50; for SHP2 IC50 times lower than control compound 11a-1: relative to 11a-1, IC50 = 0.108 µM. In a few lines:
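SHP2 catalytic domain (aa 224-528) preincubated 30 min at room temperature with compounds (10-point 3-fold series) in HEPES pH 7.2 buffer with NaCl, EDTA, DTT, BSA, Brij35. DiFMUP from 50 µM working solution added, 5 min reaction; fluorescence 340/450 nm; IC50 from nonlinear dose-response fit.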

The next experiment deals with KYSE520. The experiment is described as follows: CellTiter-Glo cell proliferation inhibition, KYSE520. In kind it is cell-based, human. To be noted: Homo sapiens, KYSE-520; KYSE520 cells, 120 hours, CellTiter-Glo. For orientation: In ATP-based viability assays light output follows the ATP content of the culture.

Consider 27 molecules from patent EP4741383A1, “COMPOUND AND USE THEREOF AS ANTI-CANCER DRUG” (Tyligand Bioscience (Shanghai) Limited, priority 2023, dated 2025).

`CC1(n2c(-c3ccc(NC(=O)C(=O)Nc4ccc(N5CCC6(CCC(O)C6)CC5)cc4)cc3)cc3cc(F)c(-c4nnn[nH]4)cc32)CCC1` (stereo not drawn) [Example 101]: the IC50 in experiment [1] turned out to be 23 nM; in the experiment with KYSE520 it was 0.128 µM. In addition, in experiment [1], the “SHP2 IC50 times lower than control compound 11a-1” value is given as 3-4 times.
Turning to `CC(O)C1CCN(c2ccc(NC(=O)C(=O)Nc3ccc(-c4cc5cc(F)c(-c6nnn[nH]6)cc5n4C4CCC4)cc3)cc2)CC1` (stereo not drawn) [Example 29], the values for the IC50 (in experiment [1]; in the experiment on KYSE520) were 48 nM and 0.076 µM, respectively.
Take `O=C(Nc1ccc(-c2cc3cc(F)c(-c4nnn[nH]4)cc3n2C2CC2)cc1)C(=O)Nc1ccc(N2CCC3(CCOC3)CC2)cc1` [Example 69]: the IC50 in experiment [1] worked out at 46 nM; with KYSE520 it was 0.189 µM.
Regarding `O=C(Nc1ccc(-c2ccsc2)cc1)C(=O)Nc1ccc(-c2oc3cc(F)c(-c4nnn[nH]4)cc3c2C2CCC2)cc1` [Example 130], the IC50 in experiment [1] was determined as 25 nM; in the experiment on KYSE520, 0.422 µM.
The corresponding values for `O=C(Nc1ccc(-c2csc(CO)c2)cc1)C(=O)Nc1ccc(-c2cc3cc(F)c(-c4nnn[nH]4)cc3n2C2CCC2)cc1` [Example 1] are 66 nM and 0.095 µM.
The corresponding values for `CC1(n2c(-c3ccc(NC(=O)C(=O)Nc4ccc(N5CCC6(CCC(O)CC6)CC5)cc4)cc3)cc3cc(F)c(-c4nnn[nH]4)cc32)CCC1` [Example 109] are 61 nM and 0.107 µM.
For `CC1(n2c(-c3ccc(NC(=O)C(=O)Nc4ccc(N5CCC6(CCOCC6)CC5)cc4)cc3)cc3cc(F)c(-c4nnn[nH]4)cc32)CCC1` [Example 77], the IC50 in experiment [1] was 20 nM; in the experiment on KYSE520, 0.049 µM. Besides, the “SHP2 IC50 times lower than control compound 11a-1” value in experiment [1] is recorded as 3-4 times.
`N#CCc1cc(-c2ccc(NC(=O)C(=O)Nc3ccc(-c4cc5cc(F)c(-c6nnn[nH]6)cc5n4C4CCC4)cc3)cc2)cs1` [Example 2]: the IC50 was found to be 64 nM in experiment [1] and 0.141 µM in the experiment on KYSE520.
As to `O=C(Nc1ccc(-c2oc3cc(F)c(-c4nnn[nH]4)cc3c2C2CCC2)cc1)C(=O)Nc1ccc(N2CCC3(CCOC3)CC2)cc1` [Example 125], the IC50 in experiment [1] turned out to be 51 nM; with KYSE520 it was 0.68 µM.
The corresponding values for `O=C(Nc1ccc(-c2cc3cc(F)c(-c4nnn[nH]4)cc3n2C2CCC2)cc1)C(=O)Nc1ccc(N2CC3(CCOCC3)C2)cc1` [Example 57] are 68 nM and 0.164 µM.
With `O=C(Nc1ccc(-c2cc3cc(F)c(-c4nnn[nH]4)cc3n2C2CCC2)cc1)C(=O)Nc1ccc(N2CC3CC(O)CC3C2)cc1` (stereo not drawn) [Example 116], the values for the IC50 (in experiment [1]; in the experiment on KYSE520) were 63 nM and 0.092 µM, respectively.
The corresponding values for `O=C(Nc1ccc(-c2cc3cc(F)c(-c4nnn[nH]4)cc3n2C2CCC2)cc1)C(=O)Nc1ccc(N2CCC3(CCOCC3)CC2)cc1` [Example 76] are 40 nM and 0.096 µM.
Turning to `Cn1c(-c2cccc(NC(=O)C(=O)Nc3ccc(-c4ccsc4)cc3)c2)c(I)c2cc(C(=O)O)c(O)cc21` [Example 11a-1, reference compound], the IC50 in experiment [1] worked out at 108 nM; with KYSE520, 1.23 µM.
As for `CC(C)(O)C1CCN(c2ccc(NC(=O)C(=O)Nc3ccc(-c4cc5cc(F)c(-c6nnn[nH]6)cc5n4C4CCC4)cc3)cc2)CC1` [Example 33], the IC50 in experiment [1] is 41 nM; with KYSE520, 0.042 µM.
The corresponding values for `Cn1cc(-c2ccc(NC(=O)C(=O)Nc3ccc(-c4cc5cc(F)c(-c6nnc(C(F)(F)F)[nH]6)cc5n4C4CCC4)cc3)cc2)cn1` [Example 124] are 716 nM and 0.661 µM.
The corresponding values for `O=C(Nc1ccc(-c2cc3cc(F)c(-c4nnn[nH]4)cc3n2C2CCC2)cc1)C(=O)Nc1ccc(N2CCC3(CCC(O)C3)CC2)cc1` (stereo not drawn) [Example 100] are 48 nM and 0.057 µM.
In the same order, the values of `CC1(O)CC2(CCN(c3ccc(NC(=O)C(=O)Nc4ccc(-c5cc6cc(F)c(-c7nnn[nH]7)cc6n5C5(C)CCC5)cc4)cc3)CC2)C1` [Example 95] are 61 nM and 0.113 µM.
`CC1(O)CC2CN(c3ccc(NC(=O)C(=O)Nc4ccc(-c5cc6cc(F)c(-c7nnn[nH]7)cc6n5C5CCC5)cc4)cc3)CC2C1` (stereo not drawn) [Example 117]: the IC50 in experiment [1] worked out at 71 nM; in the experiment on KYSE520 it was 0.104 µM.
Take `O=C(Nc1ccc(-c2cc3cc(F)c(-c4nnn[nH]4)cc3n2C2CCC2)cc1)C(=O)Nc1ccc(N2CCC3(CCC(O)CC3)CC2)cc1` [Example 108]: the values for the IC50 (in experiment [1]; in the experiment on KYSE520) were 30 nM and 0.167 µM, respectively. The “SHP2 IC50 times lower than control compound 11a-1” value in experiment [1] is on record as 3-4 times.
Turning to `O=C(Nc1ccc(-c2cc3cc(F)c(-c4nnn[nH]4)cc3n2C2CCC2)cc1)C(=O)Nc1ccc(N2CCC3(CCCOC3)C2)cc1` (stereo not drawn) [Example 62], the IC50 in experiment [1] was found to be 65 nM; in the experiment with KYSE520, 0.193 µM.
The corresponding values for `O=C(Nc1ccc(-c2cc3cc(F)c(-c4nnn[nH]4)cc3n2C2CCC2)cc1)C(=O)Nc1ccc(N2CCC3(CCCOC3)CC2)cc1` [Example 74] are 65 nM and 0.116 µM.
As for `CC1(n2c(-c3ccc(NC(=O)C(=O)Nc4ccc(N5CCC(CCO)CC5)cc4)cc3)cc3cc(F)c(-c4nnn[nH]4)cc32)CCC1` [Example 26], the IC50 came out at 61 nM in experiment [1] and 0.126 µM in the experiment on KYSE520.
In the same order, the values of `O=C(Nc1ccc(-c2cc3cc(F)c(-c4nnn[nH]4)cc3n2C2CCC2)cc1)C(=O)Nc1ccc(N2CC3COCC3C2)cc1` (stereo not drawn) [Example 114] are 72 nM and 0.118 µM.
In the same order, the values of `O=C(Nc1ccc(-c2ccsc2)cc1)C(=O)Nc1ccc(-c2cc3cc(F)c(-c4nnn[nH]4)c(F)c3n2C2CCC2)cc1` [Example 134] are 69 nM and 0.334 µM.
Regarding `O=C(Nc1ccc(-c2ccsc2)cc1)C(=O)Nc1ccc(-c2cc3ccc(-c4nnn[nH]4)nc3n2C2CCC2)cc1` [Example 129], the values for the IC50 (in experiment [1]; with KYSE520) were 59 nM and 2.85 µM, respectively.
The corresponding values for `CC1(n2c(-c3ccc(NC(=O)C(=O)Nc4ccc(-c5cnn(C6COC6)c5)cc4)cc3)cc3cc(F)c(-c4nnn[nH]4)cc32)CC1` [Example 6] are 73 nM and 0.065 µM.
On to `O=C(Nc1ccc(-c2cc3cc(F)c(-c4nnn[nH]4)cc3n2C2CCC2)cc1)C(=O)Nc1ccc(N2CCC3(COC3)C2)cc1` [Example 59], for which the IC50 in experiment [1] is 62 nM; in the experiment with KYSE520 it was 0.119 µM.
